Columns and labels:
[1] = system: neurogenic inflammation in dura mater; settings: in vivo; cited from earlier work
[2] = system: oedema in the rat hind paw; settings: intravenous, saphenous nerve stimulation; cited from earlier work
[3] = system: vasodilation in the rat hind paw; assay: Vasodilation (skin blood flow) in the rat hind paw after saphenous nerve stimulation, method of Kajekar et al; assay type: in vivo; settings: intravenous
Experimental: The test compound is administered intravenously at different doses and the results are recorded as the change in the increase in skin blood flow.

| SMILES | potency against neurogenic inflammation in dura mater [1] | lowest administered amount with significant effect on ratio of plasma extravasation in the stimulated/unstimulated hind paw [2] | lowest dose with significant effect on the increase in skin blood flow (vasodilation) [3] |
| --- | --- | --- | --- |
| CNS(=O)(=O)Cc1ccc2[nH]cc(C[C@H]3CCCN3)c2c1 [CP-122,638, (R)-5-(methylaminosulphonylmethyl)-3-(pyrrolidin-2-ylmethyl)-1H-indole] | exhibit potency against neurogenic inflammation |  |  |
| CNS(=O)(=O)Cc1ccc2[nH]cc(C[C@H]3CCCN3C)c2c1 [CP-122,288, (R)-5-(methylaminosulphonylmethyl)-3-(N-methylpyrrolidin-2-ylmethyl)-1H-indole] | exhibit potency against neurogenic inflammation | 2e-14 mol/kg | 2e-12 mol/kg |
